The target of the test is T1, rEf-Amy I (Eisenia fetida, UniProt A0A173N065).
T1 construct: gene alpha-amylase; mature enzyme without signal peptide, secreted from Pichia pastoris GS115 (pPICZalphaA, codon-optimised gene), HisTrap purified, 57 kDa by SDS-PAGE; precursor 510 residues; borders from printed domain limits E18-V510
T1 sequence (A0A173N065 18-510): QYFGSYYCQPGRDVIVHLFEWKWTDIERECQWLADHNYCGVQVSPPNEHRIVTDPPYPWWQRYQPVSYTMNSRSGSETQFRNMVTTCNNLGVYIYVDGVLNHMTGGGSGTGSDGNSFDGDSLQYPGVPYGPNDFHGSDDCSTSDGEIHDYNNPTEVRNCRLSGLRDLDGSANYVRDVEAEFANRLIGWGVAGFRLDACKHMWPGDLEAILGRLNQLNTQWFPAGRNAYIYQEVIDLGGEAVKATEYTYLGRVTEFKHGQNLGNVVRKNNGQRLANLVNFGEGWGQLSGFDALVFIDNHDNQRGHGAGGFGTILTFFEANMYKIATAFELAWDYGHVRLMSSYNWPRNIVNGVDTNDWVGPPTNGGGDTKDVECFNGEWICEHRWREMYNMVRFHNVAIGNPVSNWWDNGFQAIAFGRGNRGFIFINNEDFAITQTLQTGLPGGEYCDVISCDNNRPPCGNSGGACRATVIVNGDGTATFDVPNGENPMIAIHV
Kind of test: HPLC (RI detection) of hydrolysis products. As to conditions: 5 mM substrate, 50 mM sodium acetate pH 5.5, 37 °C. It counts as biochemical.

The results in this text go back to PMC8446577, “Novel cold-adapted raw-starch digesting α-amylases from Eisenia fetida: Gene cloning, expression, and characterization” (Biotechnology Reports, 2021).

As for `OC[C@H]1O[C@H](O[C@H]2[C@H](O)[C@@H](O)[C@@H](O[C@H]3[C@H](O)[C@@H](O)[C@@H](O[C@H]4[C@H](O)[C@@H](O)C(O)O[C@@H]4CO)O[C@@H]3CO)O[C@@H]2CO)[C@H](O)[C@@H](O)[C@@H]1O` (some centres unmarked) [maltotetraose], the “HPLC (RI detection) of hydrolysis products” value was “from Mal4 was Mal (Fig. 5B)”.

On to `OC[C@H]1O[C@H](O[C@H]2[C@H](O)[C@@H](O)[C@@H](O[C@H]3[C@H](O)[C@@H](O)[C@@H](O[C@H]4[C@H](O)[C@@H](O)[C@@H](O[C@H]5[C@H](O)[C@@H](O)C(O)O[C@@H]5CO)O[C@@H]4CO)O[C@@H]3CO)O[C@@H]2CO)[C@H](O)[C@@H](O)[C@@H]1O` (some centres unmarked) [maltopentaose], for which the “HPLC (RI detection) of hydrolysis products” value is “In the case of Ef-Amy I, the major hydrolysis products from Mal5 were Mal and Mal3”.
